Measured values as given in patent US20110190307A1, “Assay” (priority 2008, published 2011).
Entries after “also recorded” stand apart in the source; their conditions may differ.

Assays:
[1] = system: primary mammalian motor neurons; assay: neuroprotective effect on primary mammalian motor neurons in culture under stress; type: cell-based; conditions: 0.5 and 5 μM applied 1 hr before stressors (H2O2 and staurosporin), 24 hours, MAP-2 positive cells counted
Experimental: Neuroprotection is measured as a % of cells counted in each experimental condition to the number of control, untreated cells run at the same time on the same plate. NPA was applied 1 hr before stressors (H2O2 and staurosporin), at 2 concentrations: 0.5 and 5 μM. Stressors were applied for 24 hours, then plates were fixed and stained for MAP-2 and then positive cells counted.

[2] = system: HB9:GFP+ motor neurons in the lesioned adult spinal cord; assay: adult validation paradigm: motor neuron regeneration after spinal cord lesion; type: in vivo, zebrafish; conditions: 2 weeks post-lesion; for number of newly generated motor neurons in HB9:GFP transgenic animals: within 1.5 mm surrounding the lesion site
Experimental: As described previously (Becker et al., 1997), fish were anesthetized by immersion in 0.033% aminobenzoic acid ethylmethylester (MS222; Sigma, St. Louis, Mo.) in PBS for 5 min. A longitudinal incision was made at the side of the fish to expose the vertebral column. The spinal cord was completely transected under visual control 4 mm caudal to the brainstem-spinal cord junction.
Stereological counts were performed in confocal image stacks of three randomly selected vibratome sections from the region up to 750 μm rostral to the lesion site and three sections from the region up to 750 μm caudal to the lesion site. Cell numbers were then calculated for the entire 1.5 mm surrounding the lesion site.
Different small molecule libraries may be used for screening. It is possible to screen the Spectrum Collection of FDA approved drugs and natural products and other bioactive components (2000 compounds), the Diversity Set of the US National Cancer Institute (1990 compounds), the Tocriscreen library (1120 compounds) and the Prestwick Chemical Library (1120 compounds). Due to some overlap between libraries, we will test approximately 5600 individual compounds. All of these libraries are commercially available. Primary screen: Compounds are applied to HB9:GFP embryos in 24 well plates at a concentration of 10-25 μM in accordance with other studies (Zon and Peterson, 2005) at 6 hpf (mid-gastrula) and trajectories of motor axons analysed at 24 hpf. Analysing 2-3 embryos per compound is sufficient, because the pattern of motor axon outgrowth is highly stereotypic, making this a robust and quick screening tool. No anaesthesia or other manipulations are necessary to observe primary motor axons. Missing, stunted, excessively branched or supernumerary motor axons (FIG. 8), which are easily detectable in a fluorescence-equipped stereo-microscope, are classified as hits. Apparently toxic substances will be re-evaluated at lower concentrations. Specificity of the effect will be established in dose-response experiments for each hit. Secondary screen: To exclude non-specific effects on motor axons due to gross alterations of the embryos occurring during early drug application, and to more directly analyse incipient differentiation of motor neurons, we use the islet-1:GFP fish. Hit compounds from the primary screen are applied at 24 hpf, when early embryogenesis is complete, but before islet-1:GFP+ motor neurons have been born. The read-out of this screen is whether the rostro-caudal band of late born secondary motor neurons in the ventral spinal cord is complete. […] To do this, 20 embryos per treatment will be dechorionated, anesthetised (tricaine 1:10000) and analysed under a stereomicroscope. […]

[3] = system: motor axons in HB9:GFP embryos; assay: primary screen paradigm: motor axons in HB9:GFP transgenic embryos; type: in vivo, zebrafish; conditions: 24 hpf HB9:GFP embryos, compound applied at 6 hpf
Experimental: (§1) We use two transgenic lines, in which expression of green fluorescent protein (GFP) is controlled by the motor neuron specific promoters HB9 or islet-1 in the spinal cord. In the HB9:GFP line (Flanagan-Steet et al., 2005), primary motor neurons and their ventral axons are labelled at 24 hours post-fertilisation (hpf). Aberrations in the highly stereotypic pattern of primary motor axons are easily detectable in a stereo-microscope (FIG. 8). […] Thus, acceleration or delay of motor neuron differentiation can readily be assessed under a stereo-microscope.
(§2) Different small molecule libraries may be used for screening. […] Primary screen: Compounds are applied to HB9:GFP embryos in 24 well plates at a concentration of 10-25 μM in accordance with other studies (Zon and Peterson, 2005) at 6 hpf (mid-gastrula) and trajectories of motor axons analysed at 24 hpf. […] Missing, stunted, excessively branched or supernumerary motor axons (FIG. 8), which are easily detectable in a fluorescence-equipped stereo-microscope, are classified as hits. Apparently toxic substances will be re-evaluated at lower concentrations. […] The read-out of this screen is whether the rostro-caudal band of late born secondary motor neurons in the ventral spinal cord is complete. […] To do this, 20 embryos per treatment will be dechorionated, anesthetised (tricaine 1:10000) and analysed under a stereomicroscope. […]

[4] = system: islet-1:GFP+ motor neurons in the ventral spinal cord; assay: secondary screen paradigm: motor neuron differentiation in islet-1:GFP transgenic embryos; type: in vivo, zebrafish
Experimental: as §1, §2

Structure (SMILES) | neuroprotection: number of neurons surviving stress conditions (% of untreated control cells) [1] | number of large motor neurons ([2]; intraperitoneal injection, p=0.0008) | number of newly generated motor neurons in HB9:GFP transgenic animals ([2]; intraperitoneal injection) | absence of motor axons [3] | embryos with a complete band of differentiated motor neurons ([4]; 72 hpf, controls 82%, p<0.00001) | effect on motor neuron differentiation (in words) ([4]; islet-1:GFP embryos, compound applied at 24 hpf, read at 48 hpf and 72 hpf) | reduction in the number of newly generated motor neurons ([2]; compared to tomatidine-injected animals)
CCCN1CCc2cccc3c2[C@H]1Cc1ccc(O)c(O)c1-3.Cl [NPA, R(−)-Propylnorapomorphine] | significantly increases the number of mammalian neurons surviving stress conditions |  |  |  |  |  | 
C[C@H]1CC[C@]2(NC1)O[C@H]1C[C@H]3[C@@H]4CC[C@H]5C[C@@H](O)CC[C@]5(C)[C@H]4CC[C@]3(C)[C@H]1[C@@H]2C [tomatidine] |  | 20±4.2 | 747±42.2 cells |  |  |  | 
CC1=C2C[C@H]3[C@@H](CC=C4C[C@@H](O)CC[C@@]43C)[C@@H]2CC[C@]12O[C@@H]1C[C@H](C)CN[C@H]1[C@H]2C [cyclopamine] |  |  | 377±45.7 cells | complete | 11% | blocks their differentiation; also recorded: retarded motor neuron differentiation | 50%
